In assay [1] the target is Ribosomal protein S6 kinase alpha-5 (Homo sapiens, UniProt O75582).
In assay [2] the target is T1, Ribosyldihydronicotinamide dehydrogenase [quinone] (Homo sapiens, UniProt P16083).
T1 sequence (P16083 whole entry): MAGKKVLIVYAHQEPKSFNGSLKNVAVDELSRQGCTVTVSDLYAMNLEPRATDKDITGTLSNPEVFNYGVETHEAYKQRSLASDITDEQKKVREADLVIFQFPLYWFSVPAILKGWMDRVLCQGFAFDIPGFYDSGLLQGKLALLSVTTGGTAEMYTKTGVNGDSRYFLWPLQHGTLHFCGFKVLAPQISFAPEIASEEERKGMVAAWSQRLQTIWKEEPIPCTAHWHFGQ

Assay [3] has as its target T2, Inhibitor of nuclear factor kappa-B kinase subunit epsilon (Homo sapiens, UniProt Q14164).
T2 sequence (Q14164 whole entry): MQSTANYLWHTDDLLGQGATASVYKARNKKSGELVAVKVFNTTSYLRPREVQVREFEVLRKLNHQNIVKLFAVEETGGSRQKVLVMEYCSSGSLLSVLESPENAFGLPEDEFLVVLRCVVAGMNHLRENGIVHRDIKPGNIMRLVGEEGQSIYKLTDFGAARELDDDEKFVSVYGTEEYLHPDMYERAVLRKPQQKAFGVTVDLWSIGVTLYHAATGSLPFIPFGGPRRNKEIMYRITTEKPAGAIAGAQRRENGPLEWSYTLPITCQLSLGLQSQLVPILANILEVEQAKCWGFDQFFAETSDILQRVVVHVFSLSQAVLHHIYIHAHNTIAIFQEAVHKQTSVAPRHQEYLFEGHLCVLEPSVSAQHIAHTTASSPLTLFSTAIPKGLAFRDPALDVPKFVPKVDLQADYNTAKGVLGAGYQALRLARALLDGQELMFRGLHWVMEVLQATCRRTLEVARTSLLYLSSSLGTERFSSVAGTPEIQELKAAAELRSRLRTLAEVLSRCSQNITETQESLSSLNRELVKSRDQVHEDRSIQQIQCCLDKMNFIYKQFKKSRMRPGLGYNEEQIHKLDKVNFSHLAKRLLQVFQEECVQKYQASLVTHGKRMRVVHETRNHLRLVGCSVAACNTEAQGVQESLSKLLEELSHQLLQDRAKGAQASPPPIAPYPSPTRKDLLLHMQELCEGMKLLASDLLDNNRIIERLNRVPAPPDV

Assay [4] concerns the target Glycogen synthase kinase-3 alpha (Homo sapiens, UniProt P49840).
Assay [5] has as its target T3, Calcium/calmodulin-dependent protein kinase type IV (Homo sapiens, UniProt Q16566).
T3 sequence (Q16566 whole entry): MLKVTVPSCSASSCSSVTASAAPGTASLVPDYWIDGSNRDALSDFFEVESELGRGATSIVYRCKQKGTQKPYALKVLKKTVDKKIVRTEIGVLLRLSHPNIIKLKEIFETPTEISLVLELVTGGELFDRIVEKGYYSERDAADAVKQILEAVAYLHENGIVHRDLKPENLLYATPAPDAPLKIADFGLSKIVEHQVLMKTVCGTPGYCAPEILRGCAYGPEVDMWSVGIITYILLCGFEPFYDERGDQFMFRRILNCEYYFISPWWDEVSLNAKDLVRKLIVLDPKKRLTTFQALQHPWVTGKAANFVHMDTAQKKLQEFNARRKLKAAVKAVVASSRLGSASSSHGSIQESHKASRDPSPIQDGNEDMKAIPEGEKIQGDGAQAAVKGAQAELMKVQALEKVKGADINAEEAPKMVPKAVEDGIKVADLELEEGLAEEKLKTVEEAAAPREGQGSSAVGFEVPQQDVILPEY

The target in another assay is T4, Ephrin type-B receptor 2 (Homo sapiens, UniProt P29323).
T4 sequence (P29323 whole entry): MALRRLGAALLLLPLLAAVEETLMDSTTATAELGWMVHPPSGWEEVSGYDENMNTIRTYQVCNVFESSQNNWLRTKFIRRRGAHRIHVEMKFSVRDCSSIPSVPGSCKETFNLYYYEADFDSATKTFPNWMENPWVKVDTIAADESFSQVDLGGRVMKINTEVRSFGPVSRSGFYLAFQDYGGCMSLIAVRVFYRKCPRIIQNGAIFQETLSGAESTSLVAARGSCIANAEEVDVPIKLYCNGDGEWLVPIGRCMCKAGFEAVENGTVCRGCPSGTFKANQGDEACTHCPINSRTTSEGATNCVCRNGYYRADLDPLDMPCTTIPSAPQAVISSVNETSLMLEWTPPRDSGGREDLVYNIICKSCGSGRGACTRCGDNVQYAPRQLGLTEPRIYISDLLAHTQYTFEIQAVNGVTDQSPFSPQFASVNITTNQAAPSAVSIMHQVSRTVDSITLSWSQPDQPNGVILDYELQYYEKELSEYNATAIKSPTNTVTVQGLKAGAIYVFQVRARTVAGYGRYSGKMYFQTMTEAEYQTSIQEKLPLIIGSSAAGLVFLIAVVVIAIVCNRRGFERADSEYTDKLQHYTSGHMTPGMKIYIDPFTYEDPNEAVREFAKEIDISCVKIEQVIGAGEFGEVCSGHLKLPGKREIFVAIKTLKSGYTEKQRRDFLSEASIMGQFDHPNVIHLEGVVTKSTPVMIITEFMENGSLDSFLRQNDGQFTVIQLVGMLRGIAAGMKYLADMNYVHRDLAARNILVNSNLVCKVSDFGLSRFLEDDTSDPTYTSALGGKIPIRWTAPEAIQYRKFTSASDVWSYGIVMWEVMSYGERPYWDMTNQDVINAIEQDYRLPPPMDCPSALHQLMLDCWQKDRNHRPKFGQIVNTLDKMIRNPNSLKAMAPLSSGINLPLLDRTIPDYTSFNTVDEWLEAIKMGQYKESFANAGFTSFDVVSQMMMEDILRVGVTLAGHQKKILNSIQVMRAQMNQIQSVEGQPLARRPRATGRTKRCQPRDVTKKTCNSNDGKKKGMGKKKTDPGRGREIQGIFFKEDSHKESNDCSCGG

Active and inactive are the calls of the source. Rule as the data show it: actives have a measured Kd and inactives only a lower limit. Bounds are passed on as bounds.

Drawing on ChEMBL document CHEMBL3991601, “The target landscape of clinical kinase drugs” (Science, 2017), this text covers Kd for 16 molecules.

Broadly, the Kd is the equilibrium constant for the complex coming apart.
Also: in the data inactive means no Kd found up to 30 µM.

Ribosomal protein S6 kinase alpha-5, sequence (O75582 whole entry): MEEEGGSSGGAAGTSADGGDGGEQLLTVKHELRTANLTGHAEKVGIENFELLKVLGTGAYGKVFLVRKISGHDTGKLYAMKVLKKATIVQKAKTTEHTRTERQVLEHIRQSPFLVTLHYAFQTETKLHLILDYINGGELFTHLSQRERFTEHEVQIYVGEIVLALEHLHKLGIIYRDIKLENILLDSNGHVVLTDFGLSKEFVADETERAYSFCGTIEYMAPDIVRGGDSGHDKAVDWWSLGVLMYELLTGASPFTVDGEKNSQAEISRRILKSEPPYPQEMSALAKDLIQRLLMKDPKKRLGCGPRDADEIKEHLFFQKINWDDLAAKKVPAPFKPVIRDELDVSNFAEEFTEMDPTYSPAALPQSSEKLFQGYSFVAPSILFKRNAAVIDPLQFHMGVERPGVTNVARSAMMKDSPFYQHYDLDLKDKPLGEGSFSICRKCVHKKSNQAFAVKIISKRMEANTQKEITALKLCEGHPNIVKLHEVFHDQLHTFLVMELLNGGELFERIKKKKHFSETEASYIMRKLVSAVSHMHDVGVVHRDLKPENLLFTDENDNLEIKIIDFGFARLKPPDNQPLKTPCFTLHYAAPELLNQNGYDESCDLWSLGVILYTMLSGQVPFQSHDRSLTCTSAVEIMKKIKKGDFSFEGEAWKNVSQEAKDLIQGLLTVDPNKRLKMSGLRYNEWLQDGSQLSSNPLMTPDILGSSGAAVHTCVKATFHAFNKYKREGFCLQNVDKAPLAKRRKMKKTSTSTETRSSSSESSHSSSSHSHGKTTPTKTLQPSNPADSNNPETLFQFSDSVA
Glycogen synthase kinase-3 alpha, sequence (P49840 whole entry): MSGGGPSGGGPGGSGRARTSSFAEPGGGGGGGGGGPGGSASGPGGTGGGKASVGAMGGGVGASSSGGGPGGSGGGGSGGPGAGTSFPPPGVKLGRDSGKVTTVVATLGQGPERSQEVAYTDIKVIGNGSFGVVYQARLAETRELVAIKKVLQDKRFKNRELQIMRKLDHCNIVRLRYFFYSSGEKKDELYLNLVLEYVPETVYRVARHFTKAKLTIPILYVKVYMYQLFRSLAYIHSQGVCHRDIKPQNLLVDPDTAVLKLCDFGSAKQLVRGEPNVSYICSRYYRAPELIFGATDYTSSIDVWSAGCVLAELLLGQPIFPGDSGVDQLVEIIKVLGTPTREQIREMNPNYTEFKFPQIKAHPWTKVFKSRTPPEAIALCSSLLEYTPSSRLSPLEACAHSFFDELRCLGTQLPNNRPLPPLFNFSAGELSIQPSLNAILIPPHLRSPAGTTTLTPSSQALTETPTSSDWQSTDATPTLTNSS

Regarding `CNC(=O)c1ccc(Nc2ncc(C(F)(F)F)c(NCc3nccnc3N(C)S(C)(=O)=O)n2)cc1` [DEFACTINIB], the Kd is > 30 µM (inactive) in assay [1]; > 30 µM (inactive) in assay [2]; > 30 µM (inactive) in assay [3]; 1.46 µM (active) in assay [4]; > 30 µM (inactive) in assay [5]; > 30 µM (inactive) on Ephrin type-B receptor 2.
As to `CC[C@@](C)(Nc1ccnc(-c2c[nH]c3ncccc23)n1)C(=O)NCC(F)(F)F` [DECERNOTINIB], the Kd (in assay [1]; in assay [2]; in assay [3]; in assay [4]; in assay [5]; on Ephrin type-B receptor 2) was > 30 µM (inactive) each time.
Turning to `O=S(=O)(c1cccc2c(O)nccc12)N1CCCNCC1` [HYDROXYFASUDIL], the Kd (in assay [1]; in assay [2]; in assay [3]; in assay [4]; in assay [5]; at Ephrin type-B receptor 2) was > 30 µM (inactive) throughout.
For `CN1CCN(c2nc(C3=C(c4c[nH]c5ccccc45)C(=O)NC3=O)c3ccccc3n2)CC1` [SOTRASTAURIN], the Kd is > 30 µM (inactive) in assay [1]; > 30 µM (inactive) in assay [2]; > 30 µM (inactive) in assay [3]; 1.2 µM (active) in assay [4]; > 30 µM (inactive) in assay [5]; > 30 µM (inactive) on Ephrin type-B receptor 2.
On to `N#CCNC(=O)c1ccc(-c2ccnc(Nc3ccc(N4CCOCC4)cc3)n2)cc1` [MOMELOTINIB], for which the Kd was > 30 µM (inactive) in assay [1]; > 30 µM (inactive) in assay [2]; 0.2 µM (active) in assay [3]; > 30 µM (inactive) in assay [4]; > 30 µM (inactive) in assay [5]; > 30 µM (inactive) at Ephrin type-B receptor 2.
With `CCN1CCN(Cc2ccc(Nc3ncc(F)c(-c4cc(F)c5nc(C)n(C(C)C)c5c4)n3)nc2)CC1` [ABEMACICLIB], the Kd in assay [1] is > 30 µM (inactive); in assay [2], > 30 µM (inactive); in assay [3], > 30 µM (inactive); in assay [4], 0.013 µM (active); in assay [5], > 30 µM (inactive); on Ephrin type-B receptor 2, > 30 µM (inactive).
On to `C[C@@H]1COC(Nc2ccc3ncnc(Nc4ccc(OCc5nccs5)c(Cl)c4)c3c2)=N1` [VARLITINIB], for which the Kd (in assay [1]; in assay [2]; in assay [3]; in assay [4]; in assay [5]; at Ephrin type-B receptor 2) was > 30 µM (inactive) each time.
In the case of `NC(=O)c1ccc(N(C(N)=O)c2c(F)cccc2F)nc1-c1ccc(F)cc1F` [VX-702], the Kd (in assay [1]; in assay [2]; in assay [3]; in assay [4]; in assay [5]; at Ephrin type-B receptor 2) was > 30 µM (inactive) throughout.
Consider `C=CC(=O)Nc1cc(Nc2nccc(-c3cn(C)c4ccccc34)n2)c(OC)cc1N(C)CCN(C)C` [OSIMERTINIB], for which the Kd in assay [1] was > 30 µM (inactive); in assay [2] it was 3.66 µM (active); in assay [3] it was > 30 µM (inactive); in assay [4] it was > 30 µM (inactive); in assay [5] it was > 30 µM (inactive); at Ephrin type-B receptor 2 it was > 30 µM (inactive).
Consider `C=CCN(/C=C1/C(=O)O[C@H](COC)[C@@]2(C)C1=C(O)C(=O)C1=C2[C@H](OC(C)=O)C[C@]2(C)C(=O)CC[C@@H]12)CC=C` [SONOLISIB], for which the Kd (in assay [1]; in assay [2]; in assay [3]; in assay [4]; in assay [5]; at Ephrin type-B receptor 2) was > 30 µM (inactive) in each case.
`COCCN1CCN(Cc2ccc(-c3n[nH]c4c3C(=O)c3c(NC(=O)NN5CCOCC5)cccc3-4)cc2)CC1` [RGB-286638]: the Kd is > 30 µM (inactive) in assay [1]; > 30 µM (inactive) in assay [2]; 1.9 µM (active) in assay [3]; 0.007 µM (active) in assay [4]; > 30 µM (inactive) in assay [5]; > 30 µM (inactive) on Ephrin type-B receptor 2.
Take `COc1cccc(Nc2ncnn3ccc(CN4CC[C@@H](N)[C@H](O)C4)c23)c1` [BMS-690514]: the Kd (in assay [1]; in assay [2]; in assay [3]; in assay [4]; in assay [5]; at Ephrin type-B receptor 2) was > 30 µM (inactive) in each case.
For the molecule `Cn1c(=O)c(F)c(Nc2ccc(I)cc2F)c2c(=O)n(C[C@@H](O)CO)cnc21` [TAK-733], the Kd (in assay [1]; in assay [2]; in assay [3]; in assay [4]; in assay [5]; at Ephrin type-B receptor 2) was > 30 µM (inactive) in each case.
For the molecule `COc1cc(Nc2ncc(F)c(Nc3ccc4c(n3)N(COP(=O)(O)O)C(=O)C(C)(C)O4)n2)cc(OC)c1OC` [FOSTAMATINIB], the Kd in assay [1] is > 30 µM (inactive); in assay [2], > 30 µM (inactive); in assay [3], 1.32 µM (active); in assay [4], > 30 µM (inactive); in assay [5], > 30 µM (inactive); on Ephrin type-B receptor 2 it was > 30 µM (inactive).
For the molecule `C#Cc1cccc(Nc2ncnc3cc4c(cc23)OCCOCCOCCO4)c1` [ICOTINIB], the Kd (in assay [1]; in assay [2]; in assay [3]; in assay [4]; in assay [5]; on Ephrin type-B receptor 2) was > 30 µM (inactive) throughout.
Consider `Cn1cc(-c2[nH]c3cc(NC(=O)[C@H](N)C4CCCCC4)cc4c3c2C=NNC4=O)cn1`, for which the Kd (in assay [1]; in assay [2]; in assay [3]; in assay [4]; in assay [5]; at Ephrin type-B receptor 2) was > 30 µM (inactive) in each case.
